Measurements from US7462600B2, “Macrolides” (Pfizer Inc, priority 2004, dated 2008).
≈ marks a conversion by molar mass, not a printed value.

How the values were obtained:
Assay type in all cases: cell-based
[1] = tested on: Streptococcus pyogenes 1079; experiment: MIC, microtiter broth dilution (NCCLS M100-S14), S. pyogenes 1079 (ermB); settings: S. pyogenes 1079 (ermB)
Procedure, shortened: (§1)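 Broth microdilution MICs in microtiter trays, run and interpreted per NCCLS M100-S14. Compounds were dissolved in DMSO as 40 mg/ml stocks.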

[2] = tested on: Streptococcus pneumoniae 1016; experiment: MIC, microtiter broth dilution (NCCLS M100-S14), S. pneumoniae 1016 (susceptible); settings: S. pneumoniae 1016 (susceptible)
Procedure, shortened: as §1

[3] = tested on: Streptococcus pneumoniae 1095; settings: S. pneumoniae 1095 (ermB); microtiter broth dilution
Procedure, shortened: as §1

[4] = tested on: Streptococcus pneumoniae 1175; settings: S. pneumoniae 1175 (mefA); microtiter broth dilution
Procedure, shortened: as §1

[5] = tested on: Haemophilus influenzae 1218; experiment: MIC, microtiter broth dilution (NCCLS M100-S14), H. influenzae 1218 (susceptible); settings: H. influenzae 1218 (susceptible)
Procedure, shortened: as §1

Structure (SMILES)	MIC S. pyogenes 1079 [1]	MIC S. pneumo. 1016 [2]	MIC S. pneumo. 1095 [3]	MIC S. pneumo. 1175 [4]	MIC H. influenzae 1218 [5]
CCC1OC(=O)C(C)C(=O)C(C)C(OC2OC(C)CC(N(C)C)C2O)C(C)(OC)CC(C)C(=O)C(C)C2N(CC3CCN(Cc4cccnc4OC)C3)C(=O)OC12C (stereo not shown) [11.09]	>64.00 µg/mL	<0.06 µg/mL	4 µg/mL (≈ 4.9 µM)	16 µg/mL (≈ 19.6 µM)	4 µg/mL (≈ 4.9 µM)
CCC1OC(=O)C(C)C(=O)C(C)C(OC2OC(C)CC(N(C)C)C2O)C(C)(OC)CC(C)C(=O)C(C)C2N(CC3CCN(Cc4nccc5ccccc45)C3)C(=O)OC12C (stereo not shown) [11.10]	64 µg/mL (≈ 76.5 µM)	<0.06 µg/mL	<0.06 µg/mL	<0.06 µg/mL	0.12 µg/mL (≈ 0.143 µM)
CCC1OC(=O)C(C)C(=O)C(C)C(OC2OC(C)CC(N(C)C)C2O)C(C)(OC)CC(C)C(=O)C(C)C2N(CC3CCN(Cc4cnn(-c5ccccn5)c4)C3)C(=O)OC12C (stereo not shown) [11.14]	32 µg/mL (≈ 37.5 µM)	<0.06 µg/mL	0.25 µg/mL (≈ 0.293 µM)	0.25 µg/mL (≈ 0.293 µM)	2 µg/mL (≈ 2.34 µM)
CCC1OC(=O)C(C)C(=O)C(C)C(OC2OC(C)CC(N(C)C)C2O)C(C)(OC)CC(C)C(=O)C(C)C2N(CC3CCN(Cc4cnn(-c5cccnc5)c4)C3)C(=O)OC12C (stereo not shown) [11.15]	64 µg/mL (≈ 75 µM)	<0.06 µg/mL	<0.06 µg/mL	0.5 µg/mL (≈ 0.586 µM)	2 µg/mL (≈ 2.34 µM)
CCC1OC(=O)C(C)C(=O)C(C)C(OC2OC(C)CC(N(C)C)C2O)C(C)(OC)CC(C)C(=O)C(C)C2N(CC3CCN(C(=O)c4cc5ccccn5n4)C3)C(=O)OC12C (stereo not shown) [11.16]	>64.00 µg/mL	<0.06 µg/mL	8 µg/mL (≈ 9.52 µM)	0.5 µg/mL (≈ 0.595 µM)	8 µg/mL (≈ 9.52 µM)
CCC1OC(=O)C(C)C(=O)C(C)C(OC2OC(C)CC(N(C)C)C2O)C(C)(OC)CC(C)C(=O)C(C)C2N(CC3CCN(C(=O)c4cnc5ccccc5c4)C3)C(=O)OC12C (stereo not shown) [11.17]	>64.00 µg/mL	<0.06 µg/mL	8 µg/mL (≈ 9.4 µM)	2 µg/mL (≈ 2.35 µM)	4 µg/mL (≈ 4.7 µM)
CCC1OC(=O)C(C)C(=O)C(C)C(OC2OC(C)CC(N(C)C)C2O)C(C)(OC)CC(C)C(=O)C(C)C2N(CC3CCN(C(=O)c4ccc5ncccc5c4)C3)C(=O)OC12C (stereo not shown) [11.18]	>64.00 µg/mL	<0.06 µg/mL	8 µg/mL (≈ 9.4 µM)	2 µg/mL (≈ 2.35 µM)	2 µg/mL (≈ 2.35 µM)
CCC1OC(=O)C(C)C(=O)C(C)C(OC2OC(C)CC(N(C)C)C2O)C(C)(OC)CC(C)C(=O)C(C)C2N(CC3CCCN3Cc3cccc(OC)n3)C(=O)OC12C (stereo not shown) [12.01]	>64.00 µg/mL	<0.06 µg/mL	2 µg/mL (≈ 2.45 µM)	1 µg/mL (≈ 1.22 µM)	8 µg/mL (≈ 9.79 µM)
CCC1OC(=O)C(C)C(=O)C(C)C(OC2OC(C)CC(N(C)C)C2O)C(C)(OC)CC(C)C(=O)C(C)C2N(CC3CCCN3Cc3cccnc3OC)C(=O)OC12C (stereo not shown) [12.02]	>64.00 µg/mL	<0.06 µg/mL	8 µg/mL (≈ 9.79 µM)	8 µg/mL (≈ 9.79 µM)	16 µg/mL (≈ 19.6 µM)
CCC1OC(=O)C(C)C(=O)C(C)C(OC2OC(C)CC(N(C)C)C2O)C(C)(OC)CC(C)C(=O)C(C)C2N(CC3CCCN3Cc3ccc(OC)nc3)C(=O)OC12C (stereo not shown) [12.03]	>64.00 µg/mL	<0.06 µg/mL	>64.00 µg/mL	0.5 µg/mL (≈ 0.612 µM)	4 µg/mL (≈ 4.9 µM)
CCC1OC(=O)C(C)C(=O)C(C)C(OC2OC(C)CC(N(C)C)C2O)C(C)(OC)CC(C)C(=O)C(C)C2N(CC3CCCN3Cc3ccno3)C(=O)OC12C (stereo not shown) [12.04]	>64.00 µg/mL	<0.06 µg/mL	4 µg/mL (≈ 5.15 µM)	1 µg/mL (≈ 1.29 µM)	2 µg/mL (≈ 2.57 µM)
CCC1OC(=O)C(C)C(=O)C(C)C(OC2OC(C)CC(N(C)C)C2O)C(C)(OC)CC(C)C(=O)C(C)C2N(CC3CCCN3C(=O)c3cnc4ccccc4c3)C(=O)OC12C (stereo not shown) [12.05]	>64.00 µg/mL	<0.06 µg/mL	1 µg/mL (≈ 1.18 µM)	1 µg/mL (≈ 1.18 µM)	4 µg/mL (≈ 4.7 µM)
CCC1OC(=O)C(C)C(=O)C(C)C(OC2OC(C)CC(N(C)C)C2O)C(C)(OC)CC(C)C(=O)C(C)C2N(CC3CCCN3C(=O)c3ccc4ncccc4c3)C(=O)OC12C (stereo not shown) [12.06]	>64.00 µg/mL	<0.06 µg/mL	0.25 µg/mL (≈ 0.294 µM)	1 µg/mL (≈ 1.18 µM)	2 µg/mL (≈ 2.35 µM)
CCC1OC(=O)C(C)C(=O)C(C)C(OC2OC(C)CC(N(C)C)C2O)C(C)(OC)CC(C)C(=O)C(C)C2N(CC3CCCN3C(=O)c3ccnc4ccccc34)C(=O)OC12C (stereo not shown) [12.08]	>64.00 µg/mL	<0.06 µg/mL	1 µg/mL (≈ 1.18 µM)	2 µg/mL (≈ 2.35 µM)	16 µg/mL (≈ 18.8 µM)
CCC1OC(=O)C(C)C(=O)C(C)C(OC2OC(C)CC(N(C)C)C2O)C(C)(OC)CC(C)C(=O)C(C)C2N(CC3CCCN3C(=O)c3cc4ccccc4cn3)C(=O)OC12C (stereo not shown) [12.09]	>64.00 µg/mL	<0.06 µg/mL	1 µg/mL (≈ 1.18 µM)	1 µg/mL (≈ 1.18 µM)	2 µg/mL (≈ 2.35 µM)
CCC1OC(=O)C(C)C(=O)C(C)C(OC2OC(C)CC(N(C)C)C2O)C(C)(OC)CC(C)C(=O)C(C)C2N(CC3CCCN3C(=O)c3cccc4cccnc34)C(=O)OC12C (stereo not shown) [12.10]	>64.00 µg/mL	<0.06 µg/mL	0.5 µg/mL (≈ 0.588 µM)	2 µg/mL (≈ 2.35 µM)	8 µg/mL (≈ 9.4 µM)
CCC1OC(=O)C(C)C(=O)C(C)C(OC2OC(C)CC(N(C)C)C2O)C(C)(OC)CC(C)C(=O)C(C)C2N(CC3CCCN3C(=O)c3ccc4cccnc4c3)C(=O)OC12C (stereo not shown) [12.12]	>64.00 µg/mL	<0.06 µg/mL	<0.06 µg/mL	1 µg/mL (≈ 1.18 µM)	2 µg/mL (≈ 2.35 µM)
CCC1OC(=O)C(C)C(=O)C(C)C(OC2OC(C)CC(N(C)C)C2O)C(C)(OC)CC(C)C(=O)C(C)C2N(CC3CCN(Cc4c[nH]c5ncccc45)C3)C(=O)OC12C (stereo not shown) [13.01]	>64.00 µg/mL	<0.06 µg/mL	0.25 µg/mL (≈ 0.303 µM)	1 µg/mL (≈ 1.21 µM)	1 µg/mL (≈ 1.21 µM)
CCC1OC(=O)C(C)C(=O)C(C)C(OC2OC(C)CC(N(C)C)C2O)C(C)(OC)CC(C)C(=O)C(C)C2N(CC3CCN(Cc4c[nH]c5cc(=O)[nH]cc45)C3)C(=O)OC12C (stereo not shown) [13.02]	64 µg/mL (≈ 76 µM)	0.12 µg/mL (≈ 0.143 µM)	16 µg/mL (≈ 19 µM)	4 µg/mL (≈ 4.75 µM)	16 µg/mL (≈ 19 µM)
CCC1OC(=O)C(C)C(=O)C(C)C(OC2OC(C)CC(N(C)C)C2O)C(C)(OC)CC(C)C(=O)C(C)C2N(CC3CCN(Cc4c[nH]c5cnccc45)C3)C(=O)OC12C (stereo not shown) [13.03]	>64.00 µg/mL	<0.06 µg/mL	1 µg/mL (≈ 1.21 µM)	4 µg/mL (≈ 4.84 µM)	2 µg/mL (≈ 2.42 µM)
CCC1OC(=O)C(C)C(=O)C(C)C(OC2OC(C)CC(N(C)C)C2O)C(C)(OC)CC(C)C(=O)C(C)C2N(CC3CCN(Cc4ccc5cccc(O)c5n4)C3)C(=O)OC12C (stereo not shown) [13.04]	64 µg/mL (≈ 75 µM)	<0.06 µg/mL	1 µg/mL (≈ 1.17 µM)	0.25 µg/mL (≈ 0.293 µM)	1 µg/mL (≈ 1.17 µM)
CCC1OC(=O)C(C)C(=O)C(C)C(OC2OC(C)CC(N(C)C)C2O)C(C)(OC)CC(C)C(=O)C(C)C2N(CC3CCN(Cc4ccc(-c5ccccn5)cc4)C3)C(=O)OC12C (stereo not shown) [13.05]	>64.00 µg/mL	<0.06 µg/mL	16 µg/mL (≈ 18.5 µM)	0.5 µg/mL (≈ 0.579 µM)	4 µg/mL (≈ 4.63 µM)
CCC1OC(=O)C(C)C(=O)C(C)C(OC2OC(C)CC(N(C)C)C2O)C(C)(OC)CC(C)C(=O)C(C)C2N(CC3CCN(Cc4ccno4)C3)C(=O)OC12C (stereo not shown) [13.06]	>64.00 µg/mL	<0.06 µg/mL	>64.00 µg/mL	0.5 µg/mL (≈ 0.644 µM)	2 µg/mL (≈ 2.57 µM)
CCC1OC(=O)C(C)C(=O)C(C)C(OC2OC(C)CC(N(C)C)C2O)C(C)(OC)CC(C)C(=O)C(C)C2N(CC3CCN(Cc4c[nH]nn4)C3)C(=O)OC12C (stereo not shown) [13.07]	>64.00 µg/mL	<0.06 µg/mL	>64.00 µg/mL	4 µg/mL (≈ 5.15 µM)	2 µg/mL (≈ 2.57 µM)
CCC1OC(=O)C(C)C(=O)C(C)C(OC2OC(C)CC(N(C)C)C2O)C(C)(OC)CC(C)C(=O)C(C)C2N(CC3CCN(Cc4c[nH]c(-c5ccccc5)n4)C3)C(=O)OC12C (stereo not shown) [13.08]	64 µg/mL (≈ 75.1 µM)	<0.06 µg/mL	4 µg/mL (≈ 4.69 µM)	0.5 µg/mL (≈ 0.587 µM)	2 µg/mL (≈ 2.35 µM)
CCC1OC(=O)C(C)C(=O)C(C)C(OC2OC(C)CC(N(C)C)C2O)C(C)(OC)CC(C)C(=O)C(C)C2N(CC3CCN(C(=O)c4ccc5cnccc5n4)C3)C(=O)OC12C (stereo not shown) [13.09]	>64.00 µg/mL	<0.06 µg/mL	>64.00 µg/mL	1 µg/mL (≈ 1.17 µM)	4 µg/mL (≈ 4.69 µM)
